Assay results taken from patent US20040009890A1, “Broad spectrum inhibitors” (priority 2002, published 2004).

System: wild type and multidrug resistant HIV strains
Test: Antiviral activity against wild type HIV and multidrug resistant patient isolates (PHA-PBMC, p24 Gag production)
Format: cell-based
Settings: for antiviral activity against HIV derived from patient isolates that contain multiple mutations, compared with wild type HIV strains: patients never exposed to the tested compounds; for antiviral potency against multidrug resistant HIV strains compared with wild type: wild type vs multidrug resistant HIV strains
Excerpt: IC50 's for broad spectrum protease inhibitors can be measured against wild type HIV and clinically isolated mutant HIV isolates, utilizing the PHA-PBMC exposed to HIV-1 (50 TCID50 dose/[…] PBMC) as target cells and using the inhibition of p24 Gag protein production as an endpoint. The amounts of p24 antigen produced by the cells can be determined on day 7 in culture using a commercially available radioimmunoassay kit.

Structure (SMILES): COc1ccc(S(=O)(=O)N(CC(C)C)C[C@@H](O)[C@H](Cc2ccccc2)NC(=O)O[C@H]2CO[C@H]3OCC[C@H]32)cc1 [Compound 1]
- antiviral activity against HIV derived from patient isolates that contain multiple mutations, compared with wild type HIV strains: equivalent to their activity against wild type HIV strains
- antiviral potency against multidrug resistant HIV strains compared with wild type: equally effective against wild type and mutant HIV strains

Structure (SMILES): CC(C)(C)NC(=O)[C@@H]1C[C@@H]2CCCC[C@@H]2CN1C[C@@H](O)[C@H](Cc1ccccc1)NC(=O)[C@H](CC(N)=O)NC(=O)c1ccc2ccccc2n1 [Compound 4, Saquinavir]
- antiviral potency against multidrug resistant HIV strains compared with wild type: dramatically less potent against the multidrug resistant strains of HIV

Structure (SMILES): CC(C)CN(C[C@@H](O)[C@H](Cc1ccccc1)NC(=O)O[C@H]1CCOC1)S(=O)(=O)c1ccc(N)cc1 [Compound 2, Amprenavir]
- antiviral activity against HIV derived from patient isolates that contain multiple mutations, compared with wild type HIV strains: much less effective against the same mutant viruses
- antiviral potency against multidrug resistant HIV strains compared with wild type: dramatically less potent against the multidrug resistant strains of HIV

Structure (SMILES): CC(C)(C)NC(=O)[C@@H]1CN(Cc2cccnc2)CCN1C[C@@H](O)C[C@@H](Cc1ccccc1)C(=O)N[C@H]1c2ccccc2C[C@H]1O [Compound 6, Indinavir]
- antiviral potency against multidrug resistant HIV strains compared with wild type: dramatically less potent against the multidrug resistant strains of HIV

Structure (SMILES): Cc1c(O)cccc1C(=O)N[C@@H](CSc1ccccc1)[C@H](O)CN1C[C@H]2CCCC[C@H]2C[C@H]1C(=O)NC(C)(C)C [Compound 7, Nelfinavir]
- antiviral potency against multidrug resistant HIV strains compared with wild type: dramatically less potent against the multidrug resistant strains of HIV

Structure (SMILES): CC(C)c1nc(CN(C)C(=O)N[C@H](C(=O)N[C@@H](Cc2ccccc2)C[C@H](O)[C@H](Cc2ccccc2)NC(=O)OCc2cncs2)C(C)C)cs1 [Compound 5, Ritonavir]
- antiviral potency against multidrug resistant HIV strains compared with wild type: dramatically less potent against the multidrug resistant strains of HIV
